Measurements taken from ChEMBL document CHEMBL5620344, “Discovery of novel 5-(2-hydroxyphenyl)-2-phthalide-3(3H)-pyrazolones as balanced multifunctional agents against Alzheimer's disease” (Eur J Med Chem, 2023).
The source made the active and inactive calls. The calls are words filed in the database; no cut-off is given here.

Legend:
[1] = Tmax in BALB/c mouse plasma at 30 mg/kg, ig; type: ADME, organism-based; conditions: po
Mus musculus [2] = experiment: Anti-oxidative stress against amyloid beta (1-42)-induced alzheimer's disease mouse model assessed as decrease in MDA content in hippocampus at 8 to 32 mg/kg and measured on day 6; type: functional, organism-based; conditions: dose 8-32 mg/kg, time 6.0 day
[3] = Metal chelating activity assessed as compound-Al3+ complex formation by measuring blue shift of maximum absorption peak at 37.5 uM in presence of AlCl3 by UV-Vis spectrometry
Mus musculus [4] = experiment: Antialzheimer activity against amyloid beta (1-42)-induced alzheimer's disease mouse model assessed as decrease in cognitive impairment by measuring increase in time spent in target quadrant in spatial probe trial at 8 to 32 mg/kg and measured on day 6 by Morris water maze test; type: functional, organism-based; conditions: dose 8-32 mg/kg, time 6.0 day
[5] = target: Amyloid-beta precursor protein (Homo sapiens) (UniProt P05067); experiment: Disaggregation of Cu2+-induced amyloid beta (1 to 42) (unknown origin) preformed fibrils assessed as degradation of crude fibrils incubated for 24 hrs by transmission electron microcopy
Amyloid-beta precursor protein (Homo sapiens), sequence (P05067 whole entry): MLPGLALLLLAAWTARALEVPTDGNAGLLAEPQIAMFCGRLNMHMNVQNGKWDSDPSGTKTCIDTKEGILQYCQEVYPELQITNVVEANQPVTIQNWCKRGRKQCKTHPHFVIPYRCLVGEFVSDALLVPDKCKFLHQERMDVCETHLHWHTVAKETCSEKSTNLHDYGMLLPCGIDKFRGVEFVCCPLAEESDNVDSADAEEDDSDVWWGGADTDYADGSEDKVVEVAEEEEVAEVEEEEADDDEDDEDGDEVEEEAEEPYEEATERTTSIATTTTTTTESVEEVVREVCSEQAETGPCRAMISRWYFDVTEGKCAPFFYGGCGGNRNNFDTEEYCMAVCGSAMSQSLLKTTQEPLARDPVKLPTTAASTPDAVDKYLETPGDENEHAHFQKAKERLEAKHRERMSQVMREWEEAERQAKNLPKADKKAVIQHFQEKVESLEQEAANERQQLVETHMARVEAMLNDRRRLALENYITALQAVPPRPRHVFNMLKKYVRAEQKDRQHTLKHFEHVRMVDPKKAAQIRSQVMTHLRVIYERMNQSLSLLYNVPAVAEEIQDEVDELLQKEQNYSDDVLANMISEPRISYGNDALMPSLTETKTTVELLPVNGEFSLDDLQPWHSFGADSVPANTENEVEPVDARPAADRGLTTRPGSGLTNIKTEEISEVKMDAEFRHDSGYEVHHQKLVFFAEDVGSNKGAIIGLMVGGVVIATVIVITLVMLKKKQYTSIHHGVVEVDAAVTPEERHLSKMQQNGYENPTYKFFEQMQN

[6] = target: Amyloid-beta precursor protein (Homo sapiens) (UniProt P05067); experiment: Inhibition of Cu2+-induced amyloid beta (1 to 42) (unknown origin) aggregation assessed as fewer amyloid beta (1 to 42) fibrils formation incubated for 24 hrs by transmission electron microscopy
Mus musculus [7] = experiment: Antialzheimer activity against amyloid beta (1-42)-induced alzheimer's disease mouse model assessed as decrease in cognitive impairment by measuring decrease in escape latency time during training phase at 8 to 32 mg/kg and measured for 5 days by Morris water maze test; type: functional, organism-based; conditions: dose 8-32 mg/kg, time 5.0 day
[8] = target: Amyloid-beta precursor protein (Homo sapiens) (UniProt P05067); experiment: Inhibition of self-induced amyloid beta (1 to 42) (unknown origin) aggregation assessed as decrease in number of aggregates formed incubated for 24 hrs by transmission electron microscopy
[9] = Antioxidant activity assessed as inhibition of Cu2+-induced ROS production by measuring decrease in fluorescence intensity in presence of Cu2+ and ascorbate by CCA-dye based fluorescence analysis; type: functional
[10] = Metal chelating activity assessed as compound-Fe2+ complex formation by measuring increase in absorbance at 37.5 uM in presence of FeSO4 by UV-vis spectrometry
Mus musculus [11] = experiment: Anti-oxidative stress against amyloid beta (1-42)-induced alzheimer's disease mouse model assessed as increase in SOD activity in hippocampus at 8 to 32 mg/kg and measured on day 6; type: functional, organism-based; conditions: dose 8-32 mg/kg, time 6.0 day
[12] = Permeability of the compound at 100 ug/ml by PAMPA-BBB assay; type: ADME; conditions: dose 100 µg/ml, read-out: permeability
[13] = Metal chelating activity assessed as compound-Fe3+ complex formation by measuring blue shift of maximum absorption peak at 37.5 uM in presence of FeCl3 by UV-Vis spectrometry
[14] = target: Amyloid-beta precursor protein (Homo sapiens) (UniProt P05067); experiment: Disaggregation of self-induced amyloid beta (1 to 42) (unknown origin) preformed fibrils assessed as reduction in long fibrils formed incubated for 24 hrs by transmission electron microscopy
[15] = target: Amyloid-beta precursor protein (Homo sapiens) (UniProt P05067); experiment: Disaggregation of Cu2+-induced amyloid beta (1 to 42) (unknown origin) preformed fibrils assessed as decrease in size of aggregates incubated for 24 hrs by transmission electron microcopy
MAO-A = target: T1, MAO-A (Homo sapiens, UniProt P21397); experiment: Inhibition of human recombinant MAO-A at 10 uM
T1 sequence (P21397 whole entry): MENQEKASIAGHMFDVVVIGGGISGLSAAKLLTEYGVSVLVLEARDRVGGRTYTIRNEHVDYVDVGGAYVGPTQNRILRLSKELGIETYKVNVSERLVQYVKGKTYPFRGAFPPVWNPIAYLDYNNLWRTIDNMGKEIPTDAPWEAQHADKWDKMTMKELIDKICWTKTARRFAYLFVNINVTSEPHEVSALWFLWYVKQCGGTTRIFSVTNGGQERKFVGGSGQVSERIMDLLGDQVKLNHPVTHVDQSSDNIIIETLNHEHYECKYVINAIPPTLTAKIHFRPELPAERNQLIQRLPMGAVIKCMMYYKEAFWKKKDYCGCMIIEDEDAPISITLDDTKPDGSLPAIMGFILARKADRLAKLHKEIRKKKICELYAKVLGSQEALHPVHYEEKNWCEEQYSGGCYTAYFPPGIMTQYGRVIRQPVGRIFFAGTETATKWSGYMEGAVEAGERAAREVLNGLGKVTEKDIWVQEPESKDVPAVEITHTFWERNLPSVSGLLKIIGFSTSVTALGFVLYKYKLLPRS

BV-2 = experiment: Anti-neuroinflammatory activity against LPS-stimulated mouse BV-2 cells assessed as inhibition of NO release at 0.5 uM incubated for 24 hrs by Griess reagent based assay; type: functional
[16] = Metal chelating activity assessed as compound-Cu2+ complex formation at stoichiometric ratio of 1:1 in presence of CuCl2 by UV-Vis spectroscopy
[17] = Metal chelating activity assessed as compound-Zn2+ complex formation by measuring red shift of absorption peak with declined absorption at 37.5 uM in presence of ZnCl2 by UV-Vis spectrometry
PC-12 [18] = experiment: Neuroprotective activity against H2O2-induced cytotoxicity in rat PC12 cells assessed as cell viability at 10 uM by MTT assay (reference value: 54.9%); type: functional; conditions: read-out: Activity
[19] = Selectivity index, ratio of IC50 for human recombinant MAO-A to IC50 for human recombinant MAO-B
PC-12 [20] = experiment: Cytotoxicity against rat PC12 cells assessed as effect on cell viability at 2.5 to 25 uM by MTT assay; type: toxicity, cell-based; conditions: pc-12, 25 µM, dose 2.5-25 µM

Tmax [1]: 30 min | Activity [3]: Active | Activity [5]: Active | inhibition [6]: Active | inhibition [8]: Active | Activity [10]: Active | Papp at 100 ug/ml [12]: 6.37 ×10⁻⁶ cm/s | Activity [13]: Active | Activity [14]: Active | Activity [15]: Active | Activity [16]: Active | Activity [17]: Active | Ratio IC50 [19]: > 24.4
SMILES: CCCCCCCC1OC(=O)c2cc(N3N=C(c4cc(Cl)ccc4O)CC3=O)ccc21 (configuration not stated)
Activity (Mus musculus [2]): Dose-Dependent Effect | Activity (Mus musculus [4]): Active | Activity (Mus musculus [7]): Active | Activity [9]: Active | Activity (Mus musculus [11]): Dose-Dependent Effect | inhibition at 10 µM (MAO-A): 32.6% | inhibition at 0.5 µM (BV-2): 25.9% | viability at 10 µM (PC-12 [18]): 77.7% | Activity (PC-12 [20]): Non-Toxic
